Data published in PubChem BioAssay (NCI).
“And” between values parts separate entries of the source, which are not always exact repeats. Equal entries are not always repeated.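 Each compound was tested at five concentrations against cells in 96-well plates for 48 hours. GI50 marks 50% less growth. TGI is the concentration that stops growth completely.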

How the values were obtained:
Assay in all cases: NCI anticancer screen, dose series, 48 h
[1] = tested on: HCT-15 colon
[2] = tested on: SK-MEL-2 melanoma
[3] = tested on: LOX IMVI melanoma
[4] = tested on: KM12 colon
[5] = tested on: DU-145 prostate
[6] = tested on: OVCAR-5 ovarian
[7] = tested on: BT-549 breast
[8] = tested on: 786-0 renal
[9] = tested on: EKVX NSCLC
[10] = tested on: A498 renal
[11] = tested on: RXF 393 renal
[12] = tested on: SK-MEL-28 melanoma
[13] = tested on: SF-268 CNS
[14] = tested on: NCI-H522 lung
[15] = tested on: UACC-62 melanoma
[16] = tested on: SK-OV-3 ovarian
[17] = tested on: HT29 colon
[18] = tested on: HL-60(TB) leukemia
[19] = tested on: SF-539 CNS
[20] = tested on: IGROV1 ovarian
[21] = tested on: UO-31 renal
[22] = tested on: M14 melanoma
[23] = tested on: NCI/ADR-RES ovarian
[24] = tested on: RPMI-8226 leukemia
[25] = tested on: OVCAR-3 ovarian
[26] = tested on: ACHN renal
[27] = tested on: SK-MEL-5 melanoma
[28] = tested on: K-562 leukemia
[29] = tested on: MOLT-4 leukemia
[30] = tested on: SF-295 CNS
[31] = tested on: TK-10 renal
[32] = tested on: SW-620 colon
[33] = tested on: HOP-62 NSCLC
[34] = tested on: NCI-H460 lung
[35] = tested on: HCC-2998 colon
[36] = tested on: MDA-MB-435
[37] = tested on: A549 NSCLC
[38] = tested on: SNB-19 CNS
[39] = tested on: PC-3 prostate
[40] = tested on: HOP-92 NSCLC
[41] = tested on: SNB-75 CNS
[42] = tested on: SN12C renal
[43] = tested on: CAKI-1 renal
[44] = tested on: U251 CNS
[45] = tested on: OVCAR-4 ovarian
[46] = tested on: NCI-H23 lung
[47] = tested on: MALME-3M melanoma
[48] = tested on: CCRF-CEM leukemia
[49] = tested on: HS 578T breast
[50] = tested on: SR leukemia
[51] = tested on: MCF7 breast
[52] = tested on: MDA-MB-231 breast
[53] = tested on: T-47D breast
[54] = tested on: NCI-H226 lung
[55] = tested on: OVCAR-8 ovarian
[56] = tested on: HCT-116 colon
[57] = tested on: COLO 205 colon
[58] = tested on: UACC-257 melanoma
[59] = tested on: MDA-N

Structure (SMILES): Cc1cnc(Nc2ccc(OCCN3CCCC3)cc2)nc1Nc1cccc(S(=O)(=O)NC(C)(C)C)c1
- GI50 [1]: 330 nM and 1790 nM
- TGI [1]: 11500 nM and > 10000 nM
- GI50 [2]: 170 nM and 759 nM
- TGI [2]: 2680 nM and > 10000 nM
- GI50 [3]: 211 nM and 938 nM
- TGI [3]: 1610 nM and 2300 nM
- GI50 [4]: 361 nM
- TGI [4]: 8720 nM and > 10000 nM
- GI50 [5]: 252 nM and 1160 nM
- TGI [5]: 13600 nM and > 10000 nM
- GI50 [6]: 151 nM and 928 nM
- TGI [6]: 4510 nM and > 10000 nM
- GI50 [7]: 1740 nM and 2680 nM
- TGI [7]: 4380 nM and > 9470 nM
- GI50 [8]: 197 nM and 1010 nM
- TGI [8]: 3950 nM and 2860 nM
- TGI [9]: 12900 nM and > 10000 nM
- GI50 [10]: 144 nM and 385 nM
- TGI [10]: 869 nM and 1570 nM
- GI50 [11]: 95.5 nM and 518 nM
- TGI [11]: 385 nM and 1780 nM
- GI50 [12]: 3270 nM and > 7800 nM
- TGI [12]: 17500 nM and > 10000 nM
- GI50 [13]: 1690 nM and 1670 nM
- TGI [13]: 7520 nM and > 8990 nM
- GI50 [14]: 53 nM and 371 nM
- TGI [14]: 1350 nM and 3150 nM
- GI50 [15]: 491 nM and 1920 nM
- TGI [15]: 8140 nM and > 10000 nM
- GI50 [16]: 171 nM and 631 nM
- TGI [16]: 2620 nM and 3140 nM
- GI50 [17]: 97.3 nM and 564 nM
- TGI [17]: 2280 nM and 5120 nM
- GI50 [18]: 516 nM
- TGI [18]: 600 nM and 2160 nM
- GI50 [19]: 332 nM and 1520 nM
- TGI [19]: 2150 nM and 4910 nM
- GI50 [20]: 83.3 nM and 558 nM
- TGI [20]: 1750 nM and 4490 nM
- GI50 [21]: 221 nM and 656 nM
- TGI [21]: 1990 nM and 2440 nM
- GI50 [22]: 190 nM and 610 nM
- TGI [22]: 3540 nM and 6250 nM
- GI50 [23]: 7010 nM and > 7110 nM
- TGI [23]: 26600 nM and > 10000 nM
- GI50 [24]: 1230 nM and 1090 nM
- TGI [24]: 6510 nM and > 6610 nM
- GI50 [25]: 464 nM and 1360 nM
- TGI [25]: 14700 nM and > 10000 nM
- GI50 [26]: 92.7 nM and 733 nM
- TGI [26]: 1890 nM and 3490 nM
- GI50 [27]: 1730 nM and 2100 nM
- TGI [27]: 5380 nM and > 5380 nM
- GI50 [28]: 150 nM and 676 nM
- TGI [28]: > 33600 nM
- GI50 [29]: 180 nM and 1140 nM
- TGI [29]: 12500 nM and > 10000 nM
- GI50 [30]: 304 nM and 2570 nM
- TGI [30]: 12400 nM and > 10000 nM
- GI50 [31]: 149 nM and 424 nM
- TGI [31]: 3700 nM and 1850 nM
- GI50 [32]: 228 nM and 946 nM
- TGI [32]: 3540 nM and > 7420 nM
- GI50 [33]: 305 nM and 848 nM
- TGI [33]: 9500 nM and > 8680 nM
- GI50 [34]: 228 nM and 1090 nM
- TGI [34]: 7280 nM and > 10000 nM
- GI50 [35]: 409 nM and 1430 nM
- TGI [35]: 4430 nM and > 7010 nM
- GI50 [36]: 121 nM and 1140 nM
- TGI [36]: 11900 nM and > 10000 nM
- GI50 [37]: 335 nM and 1360 nM
- TGI [37]: 7290 nM and 6000 nM
- GI50 [38]: 2660 nM and 3400 nM
- TGI [38]: 15600 nM and > 10000 nM
- GI50 [39]: 383 nM and 1550 nM
- TGI [39]: > 51000 nM
- GI50 [40]: 196 nM and 384 nM
- TGI [40]: 2750 nM and 1880 nM
- GI50 [41]: 85.2 nM and 286 nM
- TGI [41]: 686 nM and 1760 nM
- GI50 [42]: 128 nM and 980 nM
- TGI [42]: 9510 nM and > 9640 nM
- GI50 [43]: 1110 nM
- GI50 [44]: 808 nM and 1350 nM
- TGI [44]: 17200 nM and > 10000 nM
- GI50 [45]: 671 nM and 967 nM
- TGI [45]: 21300 nM and > 10000 nM
- GI50 [46]: 307 nM and 1920 nM
- TGI [46]: 7050 nM and > 10000 nM
- GI50 [47]: 894 nM and 2450 nM
- TGI [47]: 12300 nM and > 6360 nM
- GI50 [48]: 398 nM and 1300 nM
- TGI [48]: > 21700 nM
- GI50 [49]: 181 nM and 568 nM
- TGI [49]: 2280 nM and 3580 nM
- GI50 [50]: 247 nM and 502 nM
- TGI [50]: 2340 nM and 5110 nM
- GI50 [51]: 143 nM and 775 nM
- TGI [51]: 9160 nM and > 10000 nM
- GI50 [52]: 214 nM and 1330 nM
- TGI [52]: 11700 nM and > 10000 nM
- GI50 [53]: 2130 nM and 2110 nM
- TGI [53]: 24200 nM and > 10000 nM
- GI50 [54]: 146 nM and 813 nM
- TGI [54]: 1900 nM and 2970 nM
- GI50 [55]: 666 nM and 2660 nM
- TGI [55]: 9030 nM and > 10000 nM
- GI50 [56]: 345 nM
- TGI [56]: 4940 nM and > 6430 nM
- GI50 [57]: 720 nM
- TGI [57]: 859 nM and 2550 nM
- GI50 [58]: 1280 nM and 3990 nM
- TGI [58]: 2830 nM and > 10000 nM

Structure (SMILES): CN(C)CCNC(=O)c1cc(NC(=O)c2cc(NC(=O)CC/C=C3/[C@@H]4CC[C@H]3N=N4)cn2C)cn1C
- TGI [1]: > 100000 nM
- TGI [2]: > 100000 nM
- TGI [3]: > 100000 nM
- TGI [4]: > 100000 nM
- TGI [5]: > 100000 nM
- TGI [6]: > 100000 nM
- TGI [7]: > 100000 nM
- TGI [8]: > 100000 nM
- TGI [59]: > 100000 nM
- TGI [9]: > 100000 nM
- TGI [10]: > 100000 nM
- TGI [11]: > 100000 nM
- TGI [12]: > 100000 nM
- TGI [13]: > 100000 nM
- TGI [14]: > 100000 nM
- TGI [17]: > 100000 nM
- TGI [18]: > 100000 nM
- TGI [19]: > 100000 nM
- TGI [20]: > 100000 nM
- TGI [21]: > 100000 nM
- TGI [22]: > 100000 nM
- TGI [23]: > 100000 nM
- TGI [24]: > 100000 nM
- TGI [25]: > 100000 nM
- TGI [26]: > 100000 nM
- TGI [27]: > 100000 nM
- TGI [28]: > 100000 nM
- TGI [29]: > 100000 nM
- TGI [30]: > 100000 nM
- TGI [31]: > 100000 nM
- TGI [32]: > 100000 nM
- TGI [33]: > 100000 nM
- TGI [34]: > 100000 nM
- TGI [35]: > 100000 nM
- TGI [36]: > 100000 nM
- TGI [37]: > 100000 nM
- TGI [38]: > 100000 nM
- TGI [39]: > 100000 nM
- TGI [40]: > 100000 nM
- TGI [41]: > 100000 nM
- TGI [42]: > 100000 nM
- TGI [43]: > 100000 nM
- TGI [44]: > 100000 nM
- TGI [45]: > 100000 nM
- TGI [46]: > 100000 nM
- TGI [47]: > 100000 nM
- TGI [48]: > 100000 nM
- TGI [49]: > 100000 nM
- TGI [50]: > 100000 nM
- TGI [51]: > 100000 nM
- TGI [52]: > 100000 nM
- TGI [54]: > 100000 nM
- TGI [55]: > 100000 nM
- TGI [56]: > 100000 nM
- TGI [57]: > 100000 nM
- TGI [58]: > 100000 nM
